Test [1] has as its system opiate receptor, guinea pig brain membranes. Put plainly: Opiate agonist activity by receptor binding assay (method of Simon et al.). The following applies: for Percentage of inhibition of stereospecific binding: mean ± standard error from 4 determinations. On the procedure: The opiate agonist activity of natural beta-endophine was determined by the method of Simon et al., Proc. Nat. Acad. Sci. 70, 1947 (1973) using guinea pig brain membranes.

The conditions of test [2]: Hughes et al. Nature 258, 557 (1975); cited from earlier work.
The test system of the next test is rabbit fat cells. Put plainly: Lipolytic activity in rabbit fat cells (procedure of Li et al.). The class given is cell-based. As to conditions: triplicate, mean ± standard error. From the text:
The lypolytic activity of natural beta-endorphin was compared to the activity of ovine beta-lipotropin hormone in rabbit fat cells using the procedure of Li et al., Arch. Biochem. Biophys. 169, 669 (1975).

No end group written: not given here.

On to `Oc1ccc2c3c1O[C@H]1[C@@H](O)C=C[C@H]4[C@@H](C2)NCC[C@@]341` [Normophine, reference compound], for which the “Percentage of inhibition of stereospecific binding” value in test [1] (dose 0.7 (10-^7 M)) is reported as 28 ± 0.8; in test [1] (dose 7.0 (10-^7 M)), 70 ± 0.9.
As to “H-Tyr-Gly-Gly-Phe-Met-OH (H-YGGFM-OH) [pentapeptide isolated from pig brains by Hughes et al]”, the “Opiate agonist activity (in words)” value in test [2] is listed as “exhibits opiate agonist activity”.
For “YGGFMTSEKSQTPLVTLFKNAIIKNAHKKGQ [beta-endorphin]”, the entries for the “Lipolytic activity: glycerol production” value in the test with rabbit fat cells (dose 1.1 (unit not given)) and in the test with rabbit fat cells (dose 10.0 (unit not given)) were 0.66 ± 0.28 Micromole of glycerol producti and 1.42 ± 0.37 Micromole of glycerol producti, respectively. The “Percentage of inhibition of stereospecific binding” value in test [1] (dose 1.0 (10-^7 M)) turned out to be 60 ± 0.7; in test [1] (dose 10.0 (10-^7 M)) it was 83 ± 0.2. The “Potency, times that for normophine on a molar basis” value in test [1] (molar basis) turned out to be 3.42 times.
